From patent publication US20220396569A1 (Carmot Therapeutics, Inc., priority 2021, published 2022)

Biological target: T1, human GLP-1 receptor (Homo sapiens, UniProt P43220)
T1 construct: expressed in transfected cells
Experiment: GLP-1R cAMP Assay (HitHunter cAMP accumulation)
Type: cell-based
Conditions: EC50, cAMP accumulation, CHO cells stably overexpressing human GLP-1 receptor, 30 min treatment
Description: cAMP accumulation was measured in Chinese hamster ovary (CHO) cells stably overexpressing the human GLP-1 receptor using the HitHunter cAMP Assay for Small Molecules Kit (Eurofins). Briefly, cells were grown in Ham's F12 Nutrient Mix with 10% FBS, and lifted with Cell Dissociation Buffer, Enzyme free, PBS based (ThermoFisher). Cells were pelleted, and resuspended in Hank's buffered saline solution with 10 mM HEPES, and 625 μM 3-isobutyl-1-methylxanthine. The anti-cAMP antibody reagent was then added to cells at a 1:2 ratio and 5 μL of mixture was seeded in 384-well small volume white assay plates, at 10,000 cells/well. Cells were then treated with 50 nL compound using an ECHO 550 acoustic dispenser (Labcyte) in a 20-point dose response format in triplicate for 30 min. Cells were then lysed, and detection reagents added according to the manufacturer's protocol. After overnight incubation, luminescence was measured using a Perkin Elmer Envision plate reader. Dose response curves were analyzed using GraphPad Prism 9.0. […]

T1 sequence (P43220 24-463): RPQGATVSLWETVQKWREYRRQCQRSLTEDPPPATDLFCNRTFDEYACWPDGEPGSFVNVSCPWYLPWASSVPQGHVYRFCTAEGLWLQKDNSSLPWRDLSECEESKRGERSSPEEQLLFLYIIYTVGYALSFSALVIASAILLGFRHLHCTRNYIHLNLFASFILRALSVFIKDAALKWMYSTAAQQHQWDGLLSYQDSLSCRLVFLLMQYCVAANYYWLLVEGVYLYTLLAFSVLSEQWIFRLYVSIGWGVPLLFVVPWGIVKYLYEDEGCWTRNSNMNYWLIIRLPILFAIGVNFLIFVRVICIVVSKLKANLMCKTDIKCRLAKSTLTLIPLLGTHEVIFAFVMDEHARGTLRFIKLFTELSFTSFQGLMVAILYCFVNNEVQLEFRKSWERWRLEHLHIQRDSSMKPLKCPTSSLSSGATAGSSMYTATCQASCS

SMILES	EC50 [nM]
O=C(O)c1cc(F)c2nc(CN3CC[C@H](Oc4ccnc(COc5ccc(Cl)cc5F)n4)C3)n(CC3CCO3)c2c1 (stereo partly drawn) [Compound 361, 2-{[(3S)-3-({2-[(4-chloro-2-fluorophenoxy)methyl]pyrimidin-4-yl}oxy)pyrrolidin-1-yl]methyl}-4-fluoro-1-[(oxetan-2-yl)methyl]-1H-1,3-benzodiazole-6-carboxylic acid]	< 50

Same assay, conditions: cAMP accumulation, CHO cells stably overexpressing human GLP-1 receptor, 30 min treatment; read-out: EC50

SMILES	EC50 [nM]
CCn1cncc1Cn1c(CN2CC[C@@H](Oc3ccnc(COc4ccc(Cl)cc4Cl)c3)C2)nc2ccc(C(=O)O)cc21 [Compound 245, 2-{[(3R)-3-({2-[(2,4-dichlorophenoxy)methyl]pyridin-4-yl}oxy)pyrrolidin-1-yl]methyl}-1-[(1-ethyl-1H-imidazol-5-yl)methyl]-1H-1,3-benzodiazole-6-carboxylic acid]	< 50
CCn1cncc1Cn1c(CN2C[C@H](Oc3ccnc(COc4ccc(Cl)cc4Cl)c3)[C@@H]2C)nc2ccc(C(=O)O)cc21 [Compound 273, 2-{[(2S,3S)-3-({2-[(2,4-dichlorophenoxy)methyl]pyridin-4-yl}oxy)-2-methylazetidin-1-yl]methyl}-1-[(1-ethyl-1H-imidazol-5-yl)methyl]-1H-1,3-benzodiazole-6-carboxylic acid]	< 50
CCn1cncc1Cn1c(CN2CCC(Cn3ccc(COc4ccc(Cl)cc4C#N)n3)CC2)nc2ccc(C(=O)O)cc21 [Compound 282, 2-{[4-({3-[(4-chloro-2-cyanophenoxy)methyl]-1H-pyrazol-1-yl}methyl)piperidin-1-yl]methyl}-1-[(1-ethyl-1H-imidazol-5-yl)methyl]-1H-1,3-benzodiazole-6-carboxylic acid]	< 50
CCn1cncc1Cn1c(CN2C[C@@H](Oc3ccnc(COc4ccc(Cl)cc4Cl)c3)[C@@H]2C)nc2ccc(C(=O)O)cc21 [Compound 293, 2-{[(2S,3R)-3-({2-[(2,4-dichlorophenoxy)methyl]pyridin-4-yl}oxy)-2-methylazetidin-1-yl]methyl}-1-[(1-ethyl-1H-imidazol-5-yl)methyl]-1H-1,3-benzodiazole-6-carboxylic acid]	< 50
O=C(O)c1ccc2nc(CN3CC[C@H](Oc4ccnc(COc5ccc(C(F)F)cc5F)c4)C3)n(C[C@@H]3CCO3)c2c1 [Compound 298, 2-{[(3S)-3-[(2-{[4-(difluoromethyl)-2-fluorophenoxy]methyl}pyridin-4-yl)oxy]pyrrolidin-1-yl]methyl}-1-{[(2S)-oxetan-2-yl]methyl}-1H-1,3-benzodiazole-6-carboxylic acid]	< 50
N#Cc1ccc(OCc2cccc(O[C@H]3CCN(Cc4nc5ccc(C(=O)O)cc5n4C[C@@H]4CCO4)C3)c2)c(F)c1 [Compound 350, 2-{[(3S)-3-{3-[(4-cyano-2-fluorophenoxy)methyl]phenoxy}pyrrolidin-1-yl]methyl}-1-{[(2S)-oxetan-2-yl]methyl}-1H-1,3-benzodiazole-6-carboxylic acid]	< 50
O=C(O)c1cc(F)c2nc(CN3CC[C@H](Oc4cccc(COc5ccc(Cl)cc5F)c4)C3)n(C[C@@H]3CCO3)c2c1 [Compound 351, 2-{[(3S)-3-{3-[(4-chloro-2-fluorophenoxy)methyl]phenoxy}pyrrolidin-1-yl]methyl}-4-fluoro-1-{[(2S)-oxetan-2-yl]methyl}-1H-1,3-benzodiazole-6-carboxylic acid]	< 50
CCn1cncc1Cn1c(CN2CC=C(c3cccc(COc4ccc(Cl)cc4Cl)n3)C2)nc2ccc(C(=O)O)cc21 [Compound 385, 2-[(3-{6-[(2,4-dichlorophenoxy)methyl]pyridin-2-yl}-2,5-dihydro-1H-pyrrol-1-yl)methyl]-1-[(1-ethyl-1H-imidazol-5-yl)methyl]-1H-1,3-benzodiazole-6-carboxylic acid]	< 50
O=C(O)c1ccc2nc(CN3CC=C(c4ccc(F)c(COc5ccc(Cl)cc5Cl)c4)C3)n(Cc3cnco3)c2c1 [Compound 387, 2-[(3-{3-[(2,4-dichlorophenoxy)methyl]-4-fluorophenyl}-2,5-dihydro-1H-pyrrol-1-yl)methyl]-1-[(1,3-oxazol-5-yl)methyl]-1H-1,3-benzodiazole-6-carboxylic acid]	< 50
O=C(O)c1ccc2nc(CN3CC=C(c4ccc(F)c(COc5ccc(Cl)cc5Cl)c4)C3)n(C[C@@H]3CCO3)c2c1 [Compound 388, 2-[(3-{3-[(2,4-dichlorophenoxy)methyl]-4-fluorophenyl}-2,5-dihydro-1H-pyrrol-1-yl)methyl]-1-{[(2S)-oxetan-2-yl]methyl}-1H-1,3-benzodiazole-6-carboxylic acid]	< 50
O=C(O)c1ccc2nc(CN3CCC(c4ccc(F)c(COc5ccc(Cl)cc5Cl)c4)C3)n(C[C@@H]3CCO3)c2c1 (stereo partly drawn) [Compound 389, 2-[(3-{3-[(2,4-dichlorophenoxy)methyl]-4-fluorophenyl}pyrrolidin-1-yl)methyl]-1-{[(2S)-oxetan-2-yl]methyl}-1H-1,3-benzodiazole-6-carboxylic acid]	< 50
O=C(O)c1ccc2nc(CN3CCC(c4cc(COc5ccc(Cl)cc5Cl)ccn4)C3)n(C[C@@H]3CCO3)c2c1 (some centres unmarked) [Compound 391]	< 50
O=C(O)c1ccc2nc(CN3CC=C(c4ccnc(COc5ccc(Cl)cc5Cl)c4)C3)n(Cc3ncco3)c2c1 [Compound 392]	< 50
O=C(O)c1ccc2nc(CN3CC=C(c4cc(COc5ccc(Cl)cc5F)ccn4)C3)n(C[C@@H]3CCO3)c2c1 [Compound 393]	50 to 500
O=C(O)c1ccc2nc(CN3CC=C(c4cc(COc5ccc(Cl)cc5F)ccn4)C3)n(Cc3ncco3)c2c1 [Compound 394, 2-[(3-{4-[(4-chloro-2-fluorophenoxy)methyl]pyridin-2-yl}-2,5-dihydro-1H-pyrrol-1-yl)methyl]-1-[(1,3-oxazol-2-yl)methyl]-1H-1,3-benzodiazole-6-carboxylic acid]	50 to 500
O=C(O)c1ccc2nc(CN3CCC(c4cc(COc5ccc(Cl)cc5F)ccn4)C3)n(Cc3ncco3)c2c1 (centres unmarked) [Compound 398, 2-[(3-{4-[(4-chloro-2-fluorophenoxy)methyl]pyridin-2-yl}pyrrolidin-1-yl)methyl]-1-[(1,3-oxazol-2-yl)methyl]-1H-1,3-benzodiazole-6-carboxylic acid]	< 50
O=C(O)c1ccc2nc(CN3CCC(c4ccnc(COc5ccc(Cl)cc5Cl)c4)C3)n(C[C@@H]3CCO3)c2c1 (some centres unmarked) [Compound 399]	< 50
N#Cc1ccc(OCc2cccc(C3=CCN(Cc4nc5ccc(C(=O)O)cc5n4C[C@@H]4CCO4)C3)c2)c(F)c1 [Compound 400, 2-[(3-{3-[(4-cyano-2-fluorophenoxy)methyl]phenyl}-2,5-dihydro-1H-pyrrol-1-yl)methyl]-1-{[(2S)-oxetan-2-yl]methyl}-1H-1,3-benzodiazole-6-carboxylic acid]	< 50
O=C(O)c1ccc2nc(CN3CC=C(c4cccc(COc5ccc(Cl)cc5Cl)c4)C3)n(C[C@@H]3CCO3)c2c1 [Compound 401, 2-[(3-{3-[(2,4-dichlorophenoxy)methyl]phenyl}-2,5-dihydro-1H-pyrrol-1-yl)methyl]-1-{[(2S)-oxetan-2-yl]methyl}-1H-1,3-benzodiazole-6-carboxylic acid]	< 50
O=C(O)c1ccc2nc(CN3CC=C(c4ccnc(COc5ccc(Cl)cc5Cl)c4)C3)n(C[C@@H]3CCO3)c2c1 [Compound 402, 2-[(3-{2-[(2,4-dichlorophenoxy)methyl]pyridin-4-yl}-2,5-dihydro-1H-pyrrol-1-yl)methyl]-1-{[(2S)-oxetan-2-yl]methyl}-1H-1,3-benzodiazole-6-carboxylic acid]	< 50
O=C(O)c1ccc2nc(CN3CC=C(c4ccnc(COc5ccc(Cl)cc5F)c4)C3)n(C[C@@H]3CCO3)c2c1 [Compound 403, 2-[(3-{2-[(4-chloro-2-fluorophenoxy)methyl]pyridin-4-yl}-2,5-dihydro-1H-pyrrol-1-yl)methyl]-1-{[(2S)-oxetan-2-yl]methyl}-1H-1,3-benzodiazole-6-carboxylic acid]	< 50
O=C(O)c1ccc2nc(CN3CC=C(c4ccnc(COc5ccc(Cl)cc5F)c4)C3)n(Cc3ncco3)c2c1 [Compound 404, 2-[(3-{2-[(4-chloro-2-fluorophenoxy)methyl]pyridin-4-yl}-2,5-dihydro-1H-pyrrol-1-yl)methyl]-1-[(1,3-oxazol-2-yl)methyl]-1H-1,3-benzodiazole-6-carboxylic acid]	< 50
N#Cc1ccc(OCc2nc(C3=CCN(Cc4nc5ccc(C(=O)O)cc5n4C[C@@H]4CCO4)C3)ccc2F)c(F)c1 [Compound 408, 2-[(3-{6-[(4-cyano-2-fluorophenoxy)methyl]-5-fluoropyridin-2-yl}-2,5-dihydro-1H-pyrrol-1-yl)methyl]-1-{[(2S)-oxetan-2-yl]methyl}-1H-1,3-benzodiazole-6-carboxylic acid]	< 50
O=C(O)c1ccc2nc(CN3CCC(c4ccc(F)c(COc5ccc(Cl)cc5F)n4)C3)n(C[C@@H]3CCO3)c2c1 (stereo partly drawn) [Compound 409, 2-[(3-{6-[(4-chloro-2-fluorophenoxy)methyl]-5-fluoropyridin-2-yl}pyrrolidin-1-yl)methyl]-1-{[(2S)-oxetan-2-yl]methyl}-1H-1,3-benzodiazole-6-carboxylic acid]	< 50
N#Cc1ccc(OCc2nc(C3CCN(Cc4nc5ccc(C(=O)O)cc5n4C[C@@H]4CCO4)C3)ccc2F)c(F)c1 (stereo partly drawn) [Compound 410, 2-[(3-{6-[(4-cyano-2-fluorophenoxy)methyl]-5-fluoropyridin-2-yl}pyrrolidin-1-yl)methyl]-1-{[(2S)-oxetan-2-yl]methyl}-1H-1,3-benzodiazole-6-carboxylic acid]	< 50
